How the values were obtained:
NF-κB = NF-κB luciferase reporter assay in A549/NF-κBLuc cells stimulated with IL-1β; format: cell-based, human; settings: Homo sapiens, A549, A549/NF-κBLuc cells; compound added 1 hour before IL-1β, then 3 hours incubation; luciferase activity; read-out: NF-κB Inhibitory Activity (IC50)
Experimental: Effect on Human Lung Cancer-Derived Cell A549 (A549/NF-κBluc) Containing Stably Introduced Luciferase Plasmid (pNFκB-Luc, Stratagene. U.S.A.) Regulated by NF-κB Binding Sequence
Using Lipofectamine (Lifetech Oriental, Tokyo), pNFκB-Luc and pSV2neo (Clontech, U.S.A.) were co-transfected into the A549 cell (ATCC CCL185) and G418 sulfate (1 mg/ml, Lifetech Oriental) was added to the culture medium to select cells containing stably introduced pNFκB-Luc A549/NF-κBLuc.
The compound obtained in Examples each was added to A549/NF-κBLuc and one hour after that, IL-1β capable of activating NF-κB was added. The incubation was further continued for 3 hours.
NF-κB Inhibitory Activity (IC50) of Substituted Benzoic Acid Derivitives: […]

Compound | melting point | IC50 (NF-κB)
COC1=C(OC)C(=O)C(Cc2cccc(C(=O)Nc3ccc(C(F)(F)F)cc3)c2O)=C(C)C1=O [Example 166, N-[3-(5,6-Dimethoxy-3-methyl-1,4-benzoquinon-2-yl)methyl-2-hydroxybenzoyl]-4-trifluoromethylaniline] | 129 to 131.5 °C | 
COC1=C(OC)C(=O)C(Cc2ccc(O)c(C(=O)Nc3ccccn3)c2)=C(C)C1=O [Example 156, N-(Pyridin-2-yl)-5-(5,6-dimethoxy-3-methyl-1,4-benzoquinon-2-yl)methyl-2-hydroxybenzamide] | 180 to 183 °C | 
COC1=C(OC)C(=O)C(Cc2ccc(OC(C)=O)c(C(=O)Nc3cccc(C(F)(F)F)c3)c2)=C(C)C1=O [Example 151, N-[5-(5,6-Dimethoxy-3-methyl-1,4-benzoquinon-2-yl)methyl-2-acetoxybenzoyl]-3-trifluoromethylaniline] | 98 to 100 °C | 
COC1=C(OC)C(=O)C(Cc2ccc(C(=O)Nc3cccnc3Cl)c(O)c2)=C(C)C1=O [Example 133] | 200.2 to 202.6 °C | 
COC1=C(OC)C(=O)C(Cc2ccc(O)c(C(=O)Nc3ccnc(OC)c3)c2)=C(C)C1=O [Example 231, N-(2-Methoxypyridin-4-yl)-5-(5,6-dimethoxy-3-methyl-1,4-benzoquinon-2-yl)methyl-2-hydroxybenzamide] | 218 to 220.5 °C | 
COC1=C(OC)C(=O)C(Cc2ccc(C(=O)Nc3ccc(OC)nc3)c(OC(C)=O)c2)=C(C)C1=O [Example 134, N-(6-Methoxypyridin-3-yl)-4-(5,6-dimethoxy-3-methyl-1,4-benzoquinon-2-yl)methyl-2-acetoxybenzamide] | 124.7 to 125.5 °C | 
COC1=C(OC)C(=O)C(Cc2cccc(C(=O)N3CCOCC3)c2O)=C(C)C1=O [Example 78, N-[3-(5,6-Dimethoxy-3-methyl-1,4-benzoquinon-2-yl)methyl-2-hydroxybenzoyl]morpholine] |  | 57 µM
COC1=C(OC)C(=O)C(Cc2ccc(Oc3ccccc3)c(C(=O)N3CCCCC3)c2)=C(C)C1=O [Example 86, N-[5-(5,6-Dimethoxy-3-methyl-1,4-benzoquinon-2-yl)methyl-2-phenoxybenzoyl]piperidine] |  | 27 µM
COC1=C(OC)C(=O)C(Cc2ccc(OCc3cccnc3)c(C(=O)Nc3ccc(OC)cc3)c2)=C(C)C1=O [Example 94, N-[5-(5,6-Dimethoxy-3-methyl-1,4-benzoquinon-2-yl)methyl-2-(3-pyridylmethyloxy)benzoyl]-4-methoxyaniline] |  | 45 µM
COC1=C(OC)C(=O)C(Cc2ccc(OC(C)=O)c(C(=O)Nc3cccnc3)c2)=C(C)C1=O [Example 201, N-(Pyridin-3-yl)-5-(5,6-dimethoxy-3-methyl-1,4-benzoquinon-2-yl)methyl-2-acetoxybenzamide] |  | 16 µg/mL
COC1=C(OC)C(=O)C(Cc2cccc(C(=O)N3CCOCC3)c2OC(C)=O)=C(C)C1=O [Example 72, N-[3-(5,6-Dimethoxy-3-methyl-1,4-benzoquinon-2-yl)methyl-2-acetoxybenzoyl]morpholine] |  | 43 µM
COC1=C(OC)C(=O)C(Cc2ccc(OC(C)=O)c(C(=O)Nc3ccc(OC)c(OC)c3)c2)=C(C)C1=O [Example 107, N-[5-(5,6-Dimethoxy-3-methyl-1,4-benzoquinon-2-yl)methyl-2-acetoxybenzoyl]-3,4-dimethoxyaniline] |  | 84 µM
COC1=C(OC)C(=O)C(Cc2ccc(OC(C)=O)c(C(=O)Nc3ccc(C#N)cc3)c2)=C(C)C1=O [Example 111, N-[5-(5,6-Dimethoxy-3-methyl-1,4-benzoquinon-2-yl)methyl-2-acetoxybenzoyl]-4-cyanoaniline] |  | 25 µM
COC1=C(OC)C(=O)C(Cc2ccc(O)c(C(=O)Nc3ccc(N4CCOCC4)cc3)c2)=C(C)C1=O [Example 118, N-[5-(5,6-Dimethoxy-3-methyl-1,4-benzoquinon-2-yl)methyl-2-hydroxybenzoyl]-4-morpholinoaniline] |  | 8.3 µM
COC1=C(OC)C(=O)C(Cc2ccc(OC(C)=O)c(C(=O)Nc3ccc(N4CCOCC4)cc3)c2)=C(C)C1=O [Example 110, N-[5-(5,6-Dimethoxy-3-methyl-1,4-benzoquinon-2-yl)methyl-2-acetoxybenzoyl]-4-morpholinoaniline] |  | 34 µM
COC1=C(OC)C(=O)C(Cc2ccc(OCc3cccnc3)c(C(=O)N3CCCCC3)c2)=C(C)C1=O [Example 92, N-[5-(5,6-Dimethoxy-3-methyl-1,4-benzoquinon-2-yl)methyl-2-(3-pyridylmethyloxy)benzoyl]piperidine] |  | 49 µM
COC1=C(OC)C(=O)C(Cc2cccc(C(=O)N3CCCCC3)c2OC(C)=O)=C(C)C1=O [Example 71, N-[3-(5,6-Dimethoxy-3-methyl-1,4-benzoquinon-2-yl)methyl-2-acetoxybenzoyl]piperidine] |  | 36 µM
COC1=C(OC)C(=O)C(Cc2cccc(C(=O)N3CCCCC3)c2O)=C(C)C1=O [Example 77, N-[3-(5,6-Dimethoxy-3-methyl-1,4-benzoquinon-2-yl)methyl-2-hydroxybenzoyl]piperidine] |  | 35 µM
COC1=C(OC)C(=O)C(Cc2ccc(O)c(C(=O)Nc3ccc(C#N)cc3)c2)=C(C)C1=O [Example 119, N-[5-(5,6-Dimethoxy-3-methyl-1,4-benzoquinon-2-yl)methyl-2-hydroxybenzoyl]-4-cyanoaniline] |  | 13 µM
COC1=C(OC)C(=O)C(Cc2ccc(O)c(C(=O)Nc3ccc(N)cc3)c2)=C(C)C1=O [Example 204, N-[5-(5,6-Dimethoxy-3-methyl-1,4-benzoquinon-2-yl)methyl-2-hydroxybenzoyl]-p-phenylenediamine] |  | 47 µg/mL
COC1=C(OC)C(=O)C(Cc2cccc(C(=O)N3CCOCC3)c2OCc2ccccc2)=C(C)C1=O [Example 65, N-[3-(5,6-Dimethoxy-3-methyl-1,4-benzoquinon-2-yl)methyl-2-benzyloxybenzoyl]morpholine] |  | 37 µM
COC1=C(OC)C(=O)C(Cc2ccc(OCc3cccnc3)c(C(=O)N3CCC(C)CC3)c2)=C(C)C1=O [Example 127, N-[5-(5,6-Dimethoxy-3-methyl-1,4-benzoquinon-2-yl)methyl-2-(3-pyridylmethyloxy)benzoyl]-4-methylpiperidine] |  | 24 µM
COC1=C(OC)C(=O)C(Cc2ccc(OCC(=O)OC(C)(C)C)c(C(=O)N3CCCCC3)c2)=C(C)C1=O [Example 104, N-[5-(5,6-Dimethoxy-3-methyl-1,4-benzoquinon-2-yl)methyl-2-(tert-butoxycarbonylmethyloxy)benzoyl]piperidine] |  | 29 µM
COC1=C(OC)C(=O)C(Cc2ccc(OCc3cccnc3)c(C(=O)N3CCCc4ccccc43)c2)=C(C)C1=O [Example 126, N-[5-(5,6-Dimethoxy-3-methyl-1,4-benzoquinon-2-yl)methyl-2-(3-pyridylmethyloxy)benzoyl]-1,2,3,4-tetrahydroquinoline] |  | 24 µM
COC1=C(OC)C(=O)C(Cc2ccc(O)c(C(=O)Nc3cc(OC)c(OC)c(OC)c3)c2)=C(C)C1=O [Example 114, N-[5-(5,6-Dimethoxy-3-methyl-1,4-benzoquinon-2-yl)methyl-2-hydroxybenzoyl]-3,4,5-trimethoxyaniline] |  | 48 µM
COC1=C(OC)C(=O)C(Cc2cccc(C(=O)Nc3ccc(OC)cc3)c2O)=C(C)C1=O [Example 79, N-[3-(5,6-Dimethoxy-3-methyl-1,4-benzoquinon-2-yl)methyl-2-hydroxybenzoyl]-4-methoxyaniline] |  | 27 µM
